# Results from publication PMC12144414 (iScience, 2025).
# Peptide text beside a SMILES is read from it.
# How the values were obtained:
# [1] = Physiological parameters during ischemia/reperfusion; type: in vivo, mouse; settings: 60 nmol GAI-17, during ischemia-reperfusion
# [2] = Regional cerebral blood flow; type: in vivo, mouse; settings: 60 nmol GAI-17, during ischemia-reperfusion; n = 4
# [3] = molecular target: Human recombinant GAPDH (Homo sapiens, UniProt P04406); test: GAI peptide inhibition of GAPDH aggregation; type: biochemical; settings: read-out: Potency: Aggregation inhibitory activity (%); SD
# Chain of Human recombinant GAPDH (P04406 whole entry): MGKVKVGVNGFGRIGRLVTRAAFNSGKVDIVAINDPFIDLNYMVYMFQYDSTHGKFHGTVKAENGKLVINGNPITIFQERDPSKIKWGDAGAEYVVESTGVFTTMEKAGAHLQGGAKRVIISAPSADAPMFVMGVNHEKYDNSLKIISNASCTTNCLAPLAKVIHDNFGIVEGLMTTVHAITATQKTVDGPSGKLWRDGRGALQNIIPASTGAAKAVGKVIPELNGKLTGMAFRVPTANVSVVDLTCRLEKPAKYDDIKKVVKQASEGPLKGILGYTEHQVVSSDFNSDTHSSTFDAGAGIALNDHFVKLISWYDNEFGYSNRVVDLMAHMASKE
# [4] = Stability in mouse blood serum; type: in vitro ADME; settings: prediction: endopeptidase cleavage upon peripheral injection; not tested
# [5] = Levels of pyruvate in the brain; type: in vivo, mouse; settings: GAI-17 treatment; data not shown
# [6] = molecular target: mouse GAPDH (Mus musculus, UniProt P16858); test: In vitro GAPDH aggregation assay with C152A-GAPDH; type: biochemical; settings: mouse GAPDH 0.3 mg/ml + C152A-GAPDH 0-0.75 mg/ml, 37°C 24 h, A405; n = 3
# Chain of mouse GAPDH (P16858 whole entry): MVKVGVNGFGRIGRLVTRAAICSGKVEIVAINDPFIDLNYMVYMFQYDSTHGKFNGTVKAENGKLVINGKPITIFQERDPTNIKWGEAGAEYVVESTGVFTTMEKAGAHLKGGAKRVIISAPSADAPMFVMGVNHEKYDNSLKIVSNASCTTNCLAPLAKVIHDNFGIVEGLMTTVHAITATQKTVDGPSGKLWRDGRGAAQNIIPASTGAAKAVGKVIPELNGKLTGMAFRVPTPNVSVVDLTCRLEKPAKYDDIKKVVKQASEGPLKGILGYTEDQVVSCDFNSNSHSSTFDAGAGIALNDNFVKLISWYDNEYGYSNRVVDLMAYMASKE
# [7] = system: mouse model of AIS induced by transient MCAO; settings: in vivo
compound,measurement,setting,value
C[C@@H](O)[C@H](NC(=O)[C@H](CS)NC(=O)[C@@H](N)CO)C(=O)O [GAI-17] (H-Ser-Cys-Thr-OH),"Physiological parameters (MBP, HR, blood PaO2, PaCO2, pH, RT)",[1],no changes
same,Cerebral blood flow,[2],no changes
same,inhibition,[3],97.2 ± 1.88%
same,Stability in mouse blood serum,[4],predicted to be unstable
same,Levels of pyruvate in the brain,[5],did not affect
"human GAPDH-C152A: His-tagged recombinant human GAPDH mutant with Cys-152 substituted to alanine, dominant-negative for aggregation",Inhibitory effect on mouse GAPDH aggregation in vitro,[6],confirmed in vitro
C#CCN(C)[C@H](C)Cc1ccccc1 [deprenyl],Development of brain infarction caused by MCAO (infarct volume in whole brain),[7],no significant effect
